Measured values taken from patent publication US20180148429A1 (SELVITA S.A., priority 2015, published 2018).

What was measured:
[1] = target: T1, Human recombinant His-tagged PFKFB3 (Homo sapiens, UniProt Q16875); experiment: PFKFB3 IC50 determination assay (in vitro kinase assay, modified ADP-Glo system); type: biochemical; conditions: ADP-Glo; ATP 20 μM (Km), fructose-6-phosphate 2 μM (Km), 25 nM PFKFB3, 2 h, rt; read-out: PFKFB3 IC50
T1 construct: His; made in house

[2] = target: T2, BRK (PTK6 protein tyrosine kinase 6) (Homo sapiens, UniProt Q13882); experiment: BRK (PTK6 protein tyrosine kinase 6) IC50 determination assay (in vitro kinase assay, ADP-Glo Max); type: biochemical; conditions: ATP 1600 uM (Km), Poly(Glu, Tyr) 160 uM, 75 nM PTK6, 45 min, RT
T2 construct: purchased Carna Bioscience 08-165
T2 sequence (Q13882 whole entry): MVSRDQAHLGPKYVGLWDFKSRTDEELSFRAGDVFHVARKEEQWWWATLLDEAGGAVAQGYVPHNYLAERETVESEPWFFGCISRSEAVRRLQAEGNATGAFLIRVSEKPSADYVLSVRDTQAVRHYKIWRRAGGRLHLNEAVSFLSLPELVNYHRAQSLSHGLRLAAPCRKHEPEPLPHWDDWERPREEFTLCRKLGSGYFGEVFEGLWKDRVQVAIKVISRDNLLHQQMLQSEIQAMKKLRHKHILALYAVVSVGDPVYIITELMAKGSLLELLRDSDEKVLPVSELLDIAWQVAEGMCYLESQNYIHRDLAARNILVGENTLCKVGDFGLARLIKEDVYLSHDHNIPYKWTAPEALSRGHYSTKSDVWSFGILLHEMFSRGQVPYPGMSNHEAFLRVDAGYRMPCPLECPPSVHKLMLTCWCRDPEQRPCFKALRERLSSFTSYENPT
Method: BRK (PTK6 Protein Tyrosine Kinase 6) IC50 Determination Assay
In vitro kinase assay used to determine IC50 values for tested inhibitors is based on a modified ADP-Glo™ Max Assay system (Promega) and consists of two parts:
1. Kinase reaction—performed in optimized conditions. At this step BRK phosphorylates its substrate Poly(Glu, Tyr) sodium salt [Glu:Tyr (4:1)] using ATP as a source of phosphate to produce phosphorylated substrate and ADP. Reaction is performed at Km values for ATP and substrate using optimized buffer composition and time of the reaction. BRK (PTK6 protein tyrosine kinase 6) used in the experiments is commercially available (Carna Bioscience, cat. No. 08-165).
2. Detection of ADP as a product of the reaction using ADP-Glo™ system. This part is conducted by using the commercially available kit ADP-Glo™ Max Assay (Promega, cat. No. V7001) according to manufacturer's instruction. Reproducibility and reliability of this modification is confirmed in an optimization process.
Test compounds are dissolved in DMSO and then transferred to the V-bottom 96-well plate.
Two mixes are prepared on ice: Mix 1—containing appropriate kinase amount in 2× reaction buffer and Mix 2—containing concentrated substrate (Poly(Glu, Tyr) sodium salt) and ATP in MilliQ water. 15 μL per well of Mix 1 is transferred to assay wells of 96-well white plate. Next, 2 μl of 15× concentrated test compound in DMSO is added to Mix 1 for 20 min pre-incubation, followed by addition of Mix 2 (13 μl/well). Total reaction volume is 30 μL per well. Samples are tested in duplicates. Final concentration of DMSO in the reaction is 6.7%. Conditions needed for performing BRK in vitro kinase assay are given below:
This protocol is based on Technical Bulletin, ADP-Glo™ Kinase Assay (Promega) and is adapted to 96-well plate containing 30 μL reaction mixture. 30 μL of ADP-Glo™ Reagent is added to each well of 96-well plate containing 30 μL of reaction mixture. The plate is incubated for 90 minutes on a shaker at RT. 60 μL of ADP-Glo™ Max Detection Solution is added to each well of 96-well plate containing 60 μL of the solution (ratio of kinase reaction volume to ADP-Glo™ Reagent volume to Kinase Detection Solution volume is maintained at […]). Plate is incubated for 40 minutes on a shaker at RT, protected from light. Luminescence is measured in the plate reader Synergy 2 (BioTek). Luminescent readouts for compounds tested in 8 concentrations (routinely from 66.7 μM in 5-fold serial dilution step) in duplicates, as well as for high control (complete reaction mix w/DMSO vehicle control), are first normalized to no-substrate low control by its subtraction. In the next step, % of normalized positive control is calculated for each data point and plotted against test compound concentration:
% of control—percent of positive control normalized to no-substrate negative control Lumcpd—luminescence of test compound Lumneg—luminescence of no-substrate negative control Lumpos—luminescence of positive control
IC50 parameter is determined by the GraphPad Prism 6.0 software using 4-parameter model.

T1 sequence (Q16875 whole entry): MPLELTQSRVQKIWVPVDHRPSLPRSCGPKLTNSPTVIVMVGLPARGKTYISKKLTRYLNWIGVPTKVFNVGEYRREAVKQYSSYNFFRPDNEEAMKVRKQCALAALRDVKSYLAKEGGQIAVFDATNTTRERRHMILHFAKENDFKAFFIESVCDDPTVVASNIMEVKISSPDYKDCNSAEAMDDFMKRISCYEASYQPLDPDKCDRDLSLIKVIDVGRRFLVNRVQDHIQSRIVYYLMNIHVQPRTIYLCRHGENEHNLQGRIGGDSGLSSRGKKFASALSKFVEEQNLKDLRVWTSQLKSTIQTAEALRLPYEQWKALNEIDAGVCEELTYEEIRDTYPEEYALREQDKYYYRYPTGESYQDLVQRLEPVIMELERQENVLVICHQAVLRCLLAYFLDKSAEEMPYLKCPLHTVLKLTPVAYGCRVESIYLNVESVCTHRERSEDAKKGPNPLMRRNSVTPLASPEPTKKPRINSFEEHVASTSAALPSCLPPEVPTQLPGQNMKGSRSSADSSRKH

SMILES | IC50 [1] [nM] | IC50 [2] [nM]
Cn1ccc2ccc(-c3cc(NC4CCOCC4)cc4nccnc34)cc21 [Example 66] | 1 to 1000 | 1 to 1000
CC(Nc1cc(-c2ccc3ccn(C)c3c2)c2nccnc2c1)C(=O)N1CCCC1 (centres unmarked) [compound 21, 2-{[8-(1-methyl-1H-indol-6-yl)quinoxalin-6-yl]amino}-1-(pyrrolidin-1-yl)propan-1-one] | 1000 to 10000 | 1000 to 10000
Cc1coc2ccc(-c3cc(NCc4cncc(-c5cnn(C)c5)c4)cc4nccnc34)cc12 [Example 122] | 1 to 1000 | 1000 to 10000
COc1ncccc1CNc1cc(-c2ccc3ccn(C)c3c2)c2nccnc2c1 [Example 86] | 1000 to 10000 | 1 to 1000
Cn1ccc2ccc(-c3cc(NCC4CCCOC4)cc4nccnc34)cc21 (centres unmarked) [compound 23, 8-(1-methyl-1H-indol-6-yl)-N-(oxan-3-ylmethyl)quinoxalin-6-amine] | 1 to 1000 | 1 to 1000
Cn1ccc2ccc(-c3cc(NCc4ccc(N)cc4)cc4nccnc34)cc21 [Example 75] | 10000 to 100000 | 1000 to 10000
Cn1ccc2ccc(-c3cc(NCc4cncc(-n5ccnc5)c4)cc4nccnc34)cc21 [Example 72] | 1 to 1000 | 1 to 1000
Cn1ccc2ccc(-c3cc(NCCc4cccnc4)cc4nccnc34)cc21 [compound 3, 8-(1-methyl-1H-indol-6-yl)-N-[2-(pyridin-3-yl)ethyl]quinoxalin-6-amine] | 1000 to 10000 | 1 to 1000
Cn1ccc2ccc(-c3cc(NCc4cscn4)cc4nccnc34)cc21 [compound 27, 8-(1-methyl-1H-indol-6-yl)-N-(1,3-thiazol-4-ylmethyl)quinoxalin-6-amine] | 1000 to 10000 | 1 to 1000
CC(=O)N1CCC(C(Nc2cc(-c3ccc4ccn(C)c4c3)c3nccnc3c2)c2cccnc2)CC1 (centres unmarked) [Example 123] | 1 to 1000 | 1 to 1000
Cn1ccc2ccc(-c3cc(N[C@@H]4CCCc5ccccc54)cc4nccnc34)cc21 [compound 1, 8-(1-methyl-1H-indol-6-yl)-N-[(1R)-1,2,3,4-tetrahydronaphthalen-1-yl]quinoxalin-6-amine] | 1 to 1000 | 1000 to 10000
Cn1ccc2ccc(-c3cc(NC(c4cccnc4)C4CCOCC4)cc4nccnc34)cc21 (centres unmarked) [Example 115] | 1 to 1000 | 1000 to 10000
Cn1ccc2ccc(-c3cc(NCc4cccnc4)cc4nccnc34)cc21 [compound 10, 8-(1-methyl-1H-indol-6-yl)-N-(pyridin-3-ylmethyl)quinoxalin-6-amine] | 1 to 1000 | 1 to 1000
